Measurements from patent US7582681B2, “Synergistic mixtures of 1,2-alkane diols” (Symrise GmbH & Co. KG, priority 2002, dated 2009).
Converted amounts (≈) assume the structure as drawn.

Legend:
Assay type in all cases: cell-based
[1] = system: Aspergillus niger ATCC 16404; assay: Test for adequate preservation (European Pharmacopea), 1,2-diols and 1,2-diol mixtures in O/W emulsion; details: for germ count A. niger: 3% diol(s) in O/W emulsion; for reduction in the number of colony forming units (CFU) to the 0 value: Aspergillus niger, dosage of 3%, 28 days
Description: A test for adequate preservation was carried out in accordance with the European Pharmacopea. The test thus consists of the contamination of the formulation, if possible in its final ratio, with a prescribed inoculum of suitable microorganisms, storage of the inoculated formulation at a specific temperature, taking of samples from the vessel at specific intervals and determination of the number of microorganisms in the samples taken in this way. The preserving properties are adequate if, under the conditions of the test, there is a distinct reduction or optionally no increase in the germ count in the inoculated formulations after the prescribed times at the prescribed temperatures. Experimental details of the test procedure are described in the European Pharmacopea (ISBN 3-7692-2768-9; 2001 supplement to the 3rd Edition, page 421-422, chapter 5.1.3). The initial germ count (CFU/g; “0” value) was in the range of 240,000 to 300,000 in the various test series. For the tests for adequate preservation, (a) potentially synergistically active mixtures taken into account and (b), for comparison purposes, the corresponding unmixed 1,2-diols were incorporated in O/W emulsions. […] The variation in the total concentration of 1,2-diols or 1,2-diol mixtures in the O/W emulsions was compensated for by increasing or reducing the water content, so that otherwise identical formulations always comprised 100 parts by weight in total. […] The Kull equation enables the pure substances and the active compound mixtures prepared therefrom to be compared in respect of their antimicrobial activity. With this equation the so-called synergy index (SI), which is a measure for a synergistic activity, but also for a possible antagonistic activity, of a mixture having an antimicrobial action, is determined. A synergistic effect is evident if the SI value determined is less than 1. On the other hand, if an SI of precisely 1 is calculated, there is a pure additive effect of two substances having an antimicrobial action. In the case of an SI value greater than 1, on the other hand, there is a (frequently undesired) antagonistic effect.

[2] = system: Staphylococcus epidermidis ATCC 12228; assay: MIC, agar dilution method; details: ATCC12228, Mueller-Hinton agar, 18 h at 36° C.
Description: (§1) Petri dishes 9.0 cm in diameter were charged with 13.5 ml freshly prepared Mueller-Hinton agar (Merck, Ref. 1.05437 or Wilkins-Chalgren agar boullion, Oxoid, Ref. CM 643, supplemented with log agar-agar/liter) kept liquid at 50° C., to which the various concentrations of the diluted samples were added in 10% (V/V)=1.5 ml. Mueller-Hinton agar that contained 3% Tween80 (Merck, Ref. 8.22 187) was used for the test germ Malassezia furfur. In each case 5 ml of the samples were diluted in distilled water and made up to 10 ml. The further test concentrations of the particular dilution series, which were prepared in the form of geometric series, were prepared by progressive 1:2 dilution of this batch with distilled water. […] Two agar plates were poured per test concentration and nutrient medium. After solidification and drying (approx. 1 h at 37° C.), the test plates were inoculated in point form with, in each case, 1 μl of the test germ suspensions listed below. To check purity and identity the bacteria that grow aerobically (Brevibacterium epidermidis, Corynebacterium xerosis, Staphylococcus epidermidis) were [lacuna] on Columbia blood agar (BioMérieux, Ref. 43049). The mould Aspergillus niger, the yeast Candida albicans and the two skin fungi Trichophyton mentagrophytes and Epidermophyton floccosum were cultured on Sabouraud agar (BioMérieux, Ref. 43555). Malassezia furfur was cultured on Sabourad HLT agar with disinhibitors (addition of 3% Tween80: 1%; lecithin: 0.3%; histidine: 0.1%; Merck, Ref. 1.18368). Propionibacterium acnes was cultured on Schaedler agar (BioMérieux, Ref. 43273). Further details on the test germs can be taken from Table 5. The preparation of the test germ suspensions of the bacterial germs that grow aerobically was carried out by incubation of Mueller-Hinton broth (Merck, Ref. 1.10293) which had been inoculated with a few individual colonies of the relevant test germs, at 36° C. After a distinct turbidity had been obtained, sterile nutrient broth was added to the suspensions in such an amount that the turbidity thereof corresponded to McFarland standard 0.5 (approx. 1.5×10^8 CFU/ml). All test germ suspensions with the exception of Propionibacterium acnes were diluted again 1:10 with sterile broth and the germ count thereof was determined by the surface method using a Spiralometer (results: see Table 5). The MIC (minimum inhibitory concentration) was regarded as the lowest concentration of active compound at which macroscopically there is no growth. Minimal, barely visible growth or few small individual colonies were evaluated as inhibition.

[3] = system: Brevibacterium epidermidis ATCC 35514; assay: MIC, agar dilution method; details: ATCC35514, Mueller-Hinton agar, 18 h at 36° C.
Description: as §1

[4] = system: Corynebacterium xerosis ATCC 7711; assay: MIC, agar dilution method; details: ATCC7711, Mueller-Hinton agar, 18 h at 36° C.
Description: as §1

MIC [2] | MIC [3] | MIC [4] | SMILES | germ count A. niger ([1]; 0′-count (initial germ count)) | germ count A. niger ([1]; 24 h) | germ count A. niger ([1]; 48 h) | germ count A. niger ([1]; 4 d) | germ count A. niger ([1]; 7 d) | germ count A. niger ([1]; 14 d) | germ count A. niger ([1]; 14 d, listed as 1,2-hexanediol) | germ count A. niger ([1]; 28 d) | reduction in the number of colony forming units (CFU) to the 0 value [1] | germ count A. niger ([1]; 14 d, listed as 1,2-octanediol)
25 mg/mL (≈ 212 mM) | 25 mg/mL (≈ 212 mM) | 12500 µg/mL (≈ 106 mM) | CCCCC(O)CO (stereo not drawn) [HE3, 1,2-hexanediol] | 260,000 CFU/ml | 120,000 CFU/ml | 120,000 CFU/ml | 120,000 CFU/ml | 80,000 CFU/ml | 28,000 CFU/ml | 28000 CFU/ml | 800 CFU/ml | did not enable a reduction in the number of colony forming units (CFU) to the desired 0 value | –
12.5 mg/mL (≈ 85.5 mM) | 3.12 mg/mL (≈ 21.4 mM) | 6250 µg/mL (≈ 42.7 mM) | CCCCCCC(O)CO (stereo not drawn) [OC3, 1,2-octanediol] | 260,000 CFU/ml | 55,000 CFU/ml | 6,000 CFU/ml | 6,000 CFU/ml | 1,100 CFU/ml | 1,000 CFU/ml | – | 100 CFU/ml | did not enable a reduction in the number of colony forming units (CFU) to the desired 0 value | 1000 CFU/ml
